# US20060052399A1, “Oxazolidinone derivatives as antibacterial agents” (AstraZeneca AB, priority 2002, published 2006)
# How the values were obtained:
# Format in all cases: cell-based
# [1] = system: Staphylococcus aureus MSQS (methicillin sensitive and quinolone sensitive); assay: MIC by agar dilution, Staphylococcus aureus MSQS; settings: 10^4 CFU/spot, 37° C., 24 hours
# Method: (§1) The following results were obtained on a standard in-vitro test system. The activity is described in terms of the minimum inhibitory concentration (MIC) determined by the agar-dilution technique with an inoculum size of 10^4 CFU/spot. Typically, compounds are active in the range 0.01 to 256 μg/ml.
# (§2) Staphylococci were tested on agar, using an inoculum of 10^4 CFU/spot and an incubation temperature of 37° C. for 24 hours—standard test conditions for the expression of methicillin resistance.
# [2] = system: Staphylococcus aureus MRQR (methicillin resistant and quinolone resistant); assay: MIC by agar dilution, Staphylococcus aureus MRQR; settings: 10^4 CFU/spot, 37° C., 24 hours
# Method: as §1, §2
# Streptococcus pneumoniae = assay: MIC by agar dilution, Streptococcus pneumoniae; settings: agar with 5% defibrinated horse blood, 10^4 CFU/spot, 37° C., 5% carbon dioxide, 48 hours
# Method: as §1
# (§3) Streptococci and enterococci were tested on agar supplemented with 5% defibrinated horse blood, an inoculum of 10^4 CFU/spot and an incubation temperature of 37° C. in an atmosphere of 5% carbon dioxide for 48 hours—blood is required for the growth of some of the test organisms. Fastidious Gram negative organisms were tested in Mueller-Hinton broth, supplemented with hemin and NAD, grown aerobically for 24 hours at 37° C., and with an innoculum of 5×10^4 CPU/well.
# Haemophilus influenzae = assay: MIC in Mueller-Hinton broth, Haemophilus influenzae; settings: Mueller-Hinton broth with hemin and NAD, aerobic, 24 hours, 37° C.
# Method: as §1, §3
# Moraxella catarrhalis = assay: MIC in Mueller-Hinton broth, Moraxella catarrhalis; settings: Mueller-Hinton broth with hemin and NAD, aerobic, 24 hours, 37° C.
# Method: as §1, §3
# Enterococcus faecium = assay: MIC by agar dilution, Enterococcus faecium; settings: agar with 5% defibrinated horse blood, 10^4 CFU/spot, 37° C., 5% carbon dioxide, 48 hours
# Method: as §1, §3
# [3] = system: Linezolid Reistant Streptococcus pneumoniae; assay: MIC by agar dilution, linezolid resistant Streptococcus pneumoniae; settings: agar with 5% defibrinated horse blood, 10^4 CFU/spot, 37° C., 5% carbon dioxide, 48 hours
# Method: as §1, §3
smiles,measurement,setting,value
"Cn1nnnc1-c1ccc(-c2ccc(N3CC(CNC(=O)C4CC4)OC3=O)cc2F)cn1 (stereo in doubt) [Example 2, N-[[(5R)-3-[3-Fluoro-4-[6-(1-methyl-1H-1,2,3,4-tetrazol-5-yl)-3-Pyridinyl]phenyl]oxazolidin-2-on-5-yl]methyl]cycloproanecarboxamide]",MIC,[1],2 µg/mL
same,MIC,[2],2 µg/mL
same,MIC,Streptococcus pneumoniae,0.5 µg/mL
same,MIC,Haemophilus influenzae,> 64 µg/mL
same,MIC,Moraxella catarrhalis,0.5 µg/mL
same,MIC,Enterococcus faecium,1 µg/mL
same,MIC,[3],4 µg/mL
